Results: patent US20230381327A1, “REACTIVE CONJUGATES” (DEBIOPHARM RESEARCH & MANUFACTURING S.A., priority 2020, published 2023)
Residues, ends and D or L forms follow the SMILES beside them.

What was measured:
Fc region of trastuzumab = Fc region of trastuzumab (Homo sapiens, UniProt P01857); assay: Competitive FP binding assay against Fc-III-FAM
Procedure: All sample preparations were done in PBS pH 7.0 containing 0.05% Tween. Each experiment was performed in triplicate.

rituximab = target: T1, rituximab (Homo sapiens, UniProt P01857); assay: Antibody-payload conjugation, HRMS analysis (Example 12)
T1 construct: purchased Roche RITUXAN®
Procedure: To prepare the trastuzumab-payload conjugates, 2 eq of reactive conjugate prepared in Examples 5-8, 10 (2.4 nmol) in DMSO (2-7% v/v in final reaction mixture) was added to a solution of trastuzumab (1 eq, 1.2 nmol; commercial trastuzumab Herceptin® available from Roche which was buffer-exchanged into phosphate-buffered saline (PBS) prior to the conjugation) diluted in 50 mM NaHCO3 pH 9.0 (20-28 μL) and the reaction mixture (36 μL) was stirred at room temperature for 2 hours.
(§1) The conjugation of the payload moiety to trastuzumab was evaluated by HRMS analysis (as described above). The payload loading ratios (selectivity) between Fc and F(ab)2 were evaluated by digesting the conjugates with GingisKhan protease (1 unit per μg of antibody conjugate in the presence of 2 mM cysteine, 0.1M Tris, pH 8.0 for 1 hour at 37° C.), and subsequent HRMS analysis (as described above). The Degree of Conjugation (DoC) of the trastuzumab-payload conjugates was evaluated based on the results of the HRMS analysis (as described above).
The propensity of the reactive conjugates of the present invention to react with different antibodies was evaluated using commercially available atezolizumab, rituximab, trastuzumab emtansine, brentuximab-vedotin, aflibercept, panitumumab, pembrolizumab and Fc region only. Antibody-DOTA/FITC conjugates were prepared according to the same procedure as described in Example 11 above using peptide conjugates (indicated in Table 19) and the aforementioned antibodies.
(§2) DoC Fc=DoC−DoC F(ab)2, Selectivity Fc/F(ab)2=(DoC−DoC F(ab)2)/Doc (Fab)2

trastuzumab = target: T2, trastuzumab (Homo sapiens, UniProt P01857, D239E/L241M); assay: Preparation of trastuzumab-payload conjugates in solution, HRMS analysis (DoC, Fc/F(ab)2 selectivity); details: 10 eq of peptide-payload conjugate
T2 construct: purchased Roche Herceptin®
Procedure: Deglycosylation of the conjugates was achieved by incubating 1 unit of Endo S per μg of conjugate in the formulation buffer (37° C.-1 hour).
The average Degree of Conjugation (DoC) values were calculated using the HRMS data and the Equation 1 (Eq. 1) below.
where I(DoCk) is the relative peak intensity of conjugates with k add-on molecules per antibody.
After payload conjugation, the reaction buffer was diluted with 64 μL of 0.1 M glycine pH 2.5. The antibody conjugate was then purified by gel filtration chromatography using a pre-equilibrated with 0.1 M glycine pH 2.5 Bio-spin P-30 Column (bed height: 3.7 cm, overall length: 5 cm; available from Bio-Rad, USA) and then eluted with 0.1M glycine pH 2.5. The purified antibody conjugate fractions were neutralized with 1M PBS pH 8.5 (10 μL).
as §1, §2

Question: How did the “binding to the Fc region of trastuzumab compared to Fc-III (in words)” value (shortened to “binding … compared to Fc-III (in words)”) (Fc region of trastuzumab) turn out when CC(=O)N[C@@H](CC(=O)O)C(=O)N[C@H]1CSSC[C@@H](C(=O)N[C@H](C(N)=O)[C@@H](C)O)NC(=O)[C@H](Cc2c[nH]c3ccccc23)NC(=O)[C@H](C(C)C)NC(=O)[C@H](CC(C)C)NC(=O)[C@H](CCC(=O)O)NC(=O)CNC(=O)[C@H](CC(C)C)NC(=O)[C@H](Cc2c[nH]cn2)NC(=O)[C@H](Cc2c[nH]c3ccccc23)NC(=O)[C@H](CCCCN)NC1=O [Compound A3K] (HELM PEPTIDE1{[ac].D.C.K.W.H.L.G.E.L.V.W.C.T.[am]}$PEPTIDE1,PEPTIDE1,3:R3-13:R3$$$V2.0) was run?
Answer: The value was “moderate binding efficiency”.

Question: With CC(=O)N[C@@H](CC(=O)O)C(=O)N[C@H]1CSSC[C@@H](C(=O)N[C@H](C(N)=O)[C@@H](C)O)NC(=O)[C@H](Cc2c[nH]c3ccccc23)NC(=O)[C@H](C(C)C)NC(=O)[C@H](CC(C)C)NC(=O)[C@H](CCC(=O)O)NC(=O)CNC(=O)[C@H](CCCCN)NC(=O)[C@H](Cc2c[nH]cn2)NC(=O)[C@H](Cc2c[nH]c3ccccc23)NC(=O)[C@H](C)NC1=O [Compound L6K] (HELM PEPTIDE1{[ac].D.C.A.W.H.K.G.E.L.V.W.C.T.[am]}$PEPTIDE1,PEPTIDE1,3:R3-13:R3$$$V2.0) as the molecule, how does the “binding … compared to Fc-III (in words)” value (Fc region of trastuzumab) read?
Answer: Its value is “moderate binding efficiency”.

Question: With CC(=O)N[C@@H](CC(=O)O)C(=O)N[C@H]1CSSC[C@@H](C(=O)N[C@H](C(N)=O)[C@@H](C)O)NC(=O)[C@H](Cc2c[nH]c3ccccc23)NC(=O)[C@H](CCCCN)NC(=O)[C@H](CC(C)C)NC(=O)[C@H](CCC(=O)O)NC(=O)CNC(=O)[C@H](CC(C)C)NC(=O)[C@H](Cc2c[nH]cn2)NC(=O)[C@H](Cc2c[nH]c3ccccc23)NC(=O)[C@H](C)NC1=O [Compound V10K] (HELM PEPTIDE1{[ac].D.C.A.W.H.L.G.E.L.K.W.C.T.[am]}$PEPTIDE1,PEPTIDE1,3:R3-13:R3$$$V2.0) as the molecule, how does the “binding … compared to Fc-III (in words)” value (Fc region of trastuzumab) read?
Answer: Its value is “moderate binding efficiency”.

Question: For CC(=O)N[C@@H](CC(=O)O)C(=O)N[C@H]1CSSC[C@@H](C(=O)N[C@H](C(N)=O)[C@@H](C)O)NC(=O)[C@H](Cc2c[nH]c3ccccc23)NC(=O)[C@H](C(C)C)NC(=O)[C@H](CC(C)C)NC(=O)[C@H](CCC(=O)O)NC(=O)CNC(=O)[C@H](CC(C)C)NC(=O)[C@H](CCCCN)NC(=O)[C@H](Cc2c[nH]c3ccccc23)NC(=O)[C@H](C)NC1=O [Compound H5K] (HELM PEPTIDE1{[ac].D.C.A.W.K.L.G.E.L.V.W.C.T.[am]}$PEPTIDE1,PEPTIDE1,3:R3-13:R3$$$V2.0), which “binding … compared to Fc-III (in words)” value (Fc region of trastuzumab) is on record?
Answer: Its value is “moderate binding efficiency”.

Question: For CC(=O)N[C@@H](CC(=O)O)C(=O)N[C@H]1CSSC[C@@H](C(=O)N[C@H](C(N)=O)[C@@H](C)O)NC(=O)[C@H](Cc2c[nH]c3ccccc23)NC(=O)[C@H](C(C)C)NC(=O)[C@H](CC(C)C)NC(=O)[C@H](CCC(=O)O)NC(=O)CNC(=O)[C@H](CC(C)C)NC(=O)[C@H](Cc2c[nH]cn2)NC(=O)[C@H](CCCCN)NC(=O)[C@H](C)NC1=O [Compound W4K] (HELM PEPTIDE1{[ac].D.C.A.K.H.L.G.E.L.V.W.C.T.[am]}$PEPTIDE1,PEPTIDE1,3:R3-13:R3$$$V2.0), which “binding … compared to Fc-III (in words)” value (Fc region of trastuzumab) is on record?
Answer: The value was “significant impact on peptide binding”.

Question: How did the “binding … compared to Fc-III (in words)” value (Fc region of trastuzumab) turn out when CC(=O)N[C@@H](CC(=O)O)C(=O)N[C@H]1CSSC[C@@H](C(=O)N[C@H](C(N)=O)[C@@H](C)O)NC(=O)[C@H](CCCCN)NC(=O)[C@H](C(C)C)NC(=O)[C@H](CC(C)C)NC(=O)[C@H](CCC(=O)O)NC(=O)CNC(=O)[C@H](CC(C)C)NC(=O)[C@H](Cc2c[nH]cn2)NC(=O)[C@H](Cc2c[nH]c3ccccc23)NC(=O)[C@H](C)NC1=O [Compound W11K] (HELM PEPTIDE1{[ac].D.C.A.W.H.L.G.E.L.V.K.C.T.[am]}$PEPTIDE1,PEPTIDE1,3:R3-13:R3$$$V2.0) was run?
Answer: The value was “significant impact on peptide binding”.

Question: For O=C(OCCOCCNC(=S)Nc1ccc2c(c1)C(=O)OC21c2ccc(O)cc2Oc2cc(O)ccc21)Oc1ccc(C(=O)O)cc1 [Carbonate-FITC, 4-[2-[2-[(3′,6′-dihydroxy-3-oxo-spiro [isobenzofuran-1,9′-xanthene]-5-yl)carbamothioylamino]ethoxy]ethoxycarbonyloxy]benzoic acid], which “DoC F(ab)2” value (rituximab) is on record?
Answer: Its value is 0.20.

Question: What about the “Selectivity Fc/F(ab)2” value (rituximab) of the same molecule?
Answer: The value was 3.2.

Question: And the DoC (rituximab; procedure of Example 11)?
Answer: Its DoC is 0.84.

Question: And the “Labeled mAb (%)” value (rituximab; procedure of Example 11)?
Answer: Its value is 59%.

Question: What about the “DoC Fc” value (rituximab; some values extrapolated as DoC − DoC F(ab)2) of the same molecule?
Answer: The value was 0.64.

Question: What about the DoC (trastuzumab) of the same molecule?
Answer: The DoC was 0.83.

Question: What about the “DoC F(ab)2” value (trastuzumab) of the same molecule?
Answer: The value was 0.54.

Question: And the “DoC Fc” value (trastuzumab)?
Answer: The value was 0.29.

Question: And the “Labeled mAb (%)” value (trastuzumab)?
Answer: The value was 59%.

Question: What about the “Selectivity Fc/F(ab)2” value (trastuzumab) of the same molecule?
Answer: The value was 0.5.
